# In patent US20230093684A1, “STIMULI - OR BIO- RESPONSIVE COPOLYMERS, THE POLYMERSOMES COMPRISING THE SAME AND THEIR USE IN DRUG DELIVERY” (CENTRE NATIONAL DE LA RECHERCHE SCIENTIFIQUE, priority 2019, published 2023):
# Assay: Glutathione (GSH)-triggered doxorubicin release followed by fluorescence
# Format: physicochemical
# Settings: Dox solution in brine 0.9% + GSH 10 mM
# Experimental: Release of the encapsulated compound: The amount of released dye was followed at RT by fluorescence spectroscopy (Hitachi F7000 spectrometer). […] The λex excitation wavelength was set at 480 nm and the emission λem spectra were recorded from 490 to 720 nm. The instrument was used in scan mode, with excitation slit set to 5 nm and emission slit set to 5 nm.
# The liberation of doxorubicin was followed by monitoring the fluorescence. Fluorescence spectra were collected by excitation at λex=470 nm wavelength and reading at λem=600 nm. In order to quantify the encapsulated drug, a method for the quantitative liberation was needed. Different methods, such as solvolysis, photolysis, addition of redox agents (sodium dithionite, mercaptoethanol, sodium thiosulfate, glutathione) were tested and are discussed as follows.
# In parallel, Quino-Ps-DOX (50 μL) was treated with the […] glutathione (GSH) in its reduced form, 1 μL at c=10 mM in brine (0.9% (v/w). The concentration of the GSH was set to 10 mM in order to be compatible with the highest intracellular level (FIG. 5).
# The amount of the liberated drug was quantified by fluorescence (λex=470 nm and λem=600 nm), by using a calibration curve (FIG. 6) ([…] (R^2=0.9911)). […]
smiles,measurement,value
COc1cccc2c1C(=O)c1c(O)c3c(c(O)c1C2=O)C[C@@](O)(C(=O)CO)C[C@@H]3O[C@H]1C[C@H](N)[C@H](O)[C@H](C)O1 [doxorubicin],fluorescence intensity of free doxorubicin treated with GSH (stability control),no change in the fluorescence intensity
